Data set [1] in a line: 1-Month stability evaluation (XRPD and HPLC after storage). Format: physicochemical. As to conditions: for Purity (Area %): HPLC; for Crystal Form: XRPD. An excerpt:
(§1) XRPD patterns were collected on a PANalytical X-ray powder diffractometer fitted with an automatic sample changer, a theta-theta goniometer, automatic beam divergence slit and a PSD Vantec-1 detector. The X-ray tube voltage and amperage were set to 45 kV and 40 mA respectively. The diffractometer was aligned and a calibration check performed using a corundum reference material on the day of data collection. Data were collected and analyzed by the software Data Viewer.
(§2) Agilent 1260/1100 HPLC was utilized and detailed chromatographic conditions for purity and solubility measurement are listed in Table 5.
Samples of Form A of BBR-UDCA, Form D of BBR-UDCA and BBR-UDCA (mixed crystals without quality control on crystal forms) were stored 25° C./60% RH (sealed) and 40° C./75% RH (sealed) for one month.

Data set [2] can be described thus: Accelerated stability evaluation (XRPD and HPLC after storage). It counts as physicochemical. As to conditions: for Purity (Area %): HPLC; for Form: XRPD; for decrease of HPLC purity: HPLC-DAD, under all three conditions.
Excerpt: as §1, §2
To evaluate the physical and chemical stability of Form A of BBR-UDCA and Form D of BBR-UDCA, samples were stored at 80° C. (sealed) for 24 hours, 25° C./60% RH (open) and 40° C./75% RH (open) for one week. […] The physical stability of Form A was better than Form D based on the 1-week stability results at 25° C./60% RH (open) and 40° C./75% RH (open).

The nature of data set [3]: Equilibrium aqueous solubility. It counts as physicochemical. The procedure: as §2
About 5 mg of each crystal type of solid (Form A of BBR-UDCA and Form D of BBR-UDCA, respectively) was weighed in separate 3-mL bottle, suspended into 1 mL of water, slurried (1000 rpm) at RT for 24 hours, and then centrifuged at 10000 rpm for 3 minutes. The resulting residual solids were characterized by XRPD and supernatant was measured by HPLC-DAD/ELSD. Due to the poor UV absorption of UDCA, DAD was used as the detector only for BBR and ELSD was used for both BBR and UDCA. […] The reason of the deviation from 1:1 may be that after HTD 1801 dissolving in water, a small amount of disproportionation occurred and it was hardly detected by XRPD due to its limited amount.

A short description of data set [4]: Hygroscopicity evaluation by Dynamic Vapor Sorption (DVS). Format: physicochemical. As to conditions: for water uptake: DVS. Here is the method:
DVS was measured via a SMS (Surface Measurement Systems) DVS Intrinsic.
Dynamic Vapor Sorption (DVS) isotherm plot of Form A of BBR-UDCA was collected at 25° C. with the various humidity, 60% RH-95% RH-0% RH-95% RH (60% RH was the ambient humidity). As the DVS plot shown, a step-like weight loss was observed between 10% RH and 20% RH.
To investigate the hygroscopicity of Form D of BBR-UDCA, DVS isotherm plot of Form D was collected at 25° C. between 0 and 95% RH.

The conditions of data set [5]: air exposure.
Setting [6] is: 1 Month, 25° C./60% RH (sealed).
[7] abbreviates: 1 Month, 40° C./75% RH (sealed).
Where [8] appears, read: 1 week, 25° C./60% RH (open), * = degree of crystallinity decreased.
Setting [9] is: 1 week, 40° C./75% RH (open), * = degree of crystallinity decreased.
The mark [10] stands for this setting: water, RT, 24 hours, ELSD as detector.

Where two headings read alike, the source gives them in different places.

As to `COc1ccc2cc3[n+](cc2c1OC)CCc1cc2c(cc1-3)OCO2.C[C@H](CCC(=O)[O-])[C@H]1CC[C@H]2[C@@H]3[C@@H](O)C[C@@H]4C[C@H](O)CC[C@]4(C)[C@H]3CC[C@]12C` [Mixed crystal, berberine ursodeoxycholate], in data set [1] (setting [6]), the “Purity/Initial purity (%)” value turned out to be 91.7%, the “Purity (Area %)” value stood at 90.8 Area % and the “Crystal Form” value is “Mixed”. Also, in data set [1] (setting [7]), the “Purity/Initial purity (%)” value stood at 89.6%, the “Purity (Area %)” value was found to be 88.7 Area % and the “Crystal Form” value is “Mixed”. For the same molecule, in data set [1] (Initial), the “Purity (Area %)” value is given as 99.0 Area %.
In the case of `COc1ccc2cc3[n+](cc2c1OC)CCc1cc2c(cc1-3)OCO2.C[C@H](CCC(=O)[O-])[C@H]1CC[C@H]2[C@@H]3[C@@H](O)C[C@@H]4C[C@H](O)CC[C@]4(C)[C@H]3CC[C@]12C` [Form D, berberine ursodeoxycholate], the “Purity/Initial purity (%)” value in data set [1] (setting [6]) is reported as 97.6%; in data set [1] (setting [7]), 95.1%; in data set [2] (1 week, 25° C./60% RH (open)), 99.3%; in data set [2] (1 week, 40° C./75% RH (open)) it was 98.3%; in data set [2] (24 hours, 80° C. (sealed)) it was 99.5%. Besides, the “Purity (Area %)” value in data set [1] (setting [6]) was 97.2 Area %; in data set [1] (setting [7]), 94.7 Area %; in data set [1] (Initial), 99.6 Area %; in data set [2] (1 week, 25° C./60% RH (open)), 98.9 Area %; in data set [2] (1 week, 40° C./75% RH (open)), 97.9 Area %; in data set [2] (24 hours, 80° C. (sealed)), 99.0 Area %. Moreover, the “Purity (Area %)” value in data set [2] (Initial) turned out to be 99.6 Area %. Further, the “Crystal Form” value in data set [1] (setting [6]) and in data set [1] (setting [7]) was “Form D” throughout. Further, the “crystal-form change (XRPD)” value was “No crystal-form change” in data set [1] (25° C./60% RH (sealed) and 40° C./75% RH (sealed), one month); “no crystal-form change” in data set [2] (all three conditions: 80° C. sealed 24 hours, 25° C./60% RH open and 40° C./75% RH open one week). Also, the Form result in data set [2] (setting [8]) is listed as “Form D*”; in data set [2] (setting [9]), “Form D*”; in data set [2] (24 hours, 80° C. (sealed)), “Form D”. For the same molecule, in data set [2], the “decrease of HPLC purity” value is listed as 0.5-1.7 area %. Besides, the “Solubility of UDCA” value in data set [3] amounted to 520 µg/mL. In addition, the “molar ratio (BBR:UDCA)” value in data set [3] is 0.93:1. For the same molecule, in data set [4] (25° C., over 90% RH), the “behaviour in high humidity (DVS)” value was “deliquesced in high humidity”. The water uptake in data set [4] (25° C., 95% RH) is 24.5%; in data set [4] (25° C./80% RH), 4.1%.
For the molecule `COc1ccc2cc3[n+](cc2c1OC)CCc1cc2c(cc1-3)OCO2.C[C@H](CCC(=O)[O-])[C@H]1CC[C@H]2[C@@H]3[C@@H](O)C[C@@H]4C[C@H](O)CC[C@]4(C)[C@H]3CC[C@]12C` [Form A, berberine ursodeoxycholate], the “Purity/Initial purity (%)” value in data set [1] (setting [6]) was found to be 99.8%; in data set [1] (setting [7]) it was 99.9%; in data set [2] (1 week, 25° C./60% RH (open)) it was 99.9%; in data set [2] (1 week, 40° C./75% RH (open)), 99.8%; in data set [2] (24 hours, 80° C. (sealed)) it was 99.8%. Further, the “Purity (Area %)” value in data set [1] (setting [6]) turned out to be 99.3 Area %; in data set [1] (setting [7]) it was 99.4 Area %; in data set [1] (Initial), 99.5 Area %; in data set [2] (1 week, 25° C./60% RH (open)) it was 99.4 Area %; in data set [2] (1 week, 40° C./75% RH (open)), 99.4 Area %; in data set [2] (24 hours, 80° C. (sealed)), 99.3 Area %. The “Purity (Area %)” value in data set [2] (Initial) came out at 99.5 Area %. Besides, the “Crystal Form” value in data set [1] (setting [6]) and in data set [1] (setting [7]) was “Form A” in each case. Besides, the Form result in data set [2] (setting [8]) is recorded as “Form A”; in data set [2] (setting [9]), “Form A”; in data set [2] (24 hours, 80° C. (sealed)), “Form A”. The “decrease of HPLC purity” value in data set [2] is given as “no HPLC purity decrease”. Moreover, the “Form of residual solid” value in data set [3] (water, RT, 24 hours slurry, XRPD, listed as Type A) is “Type A”. Further, the “Solubility of BBR” value in data set [3] (water, RT, 24 hours, DAD as detector) is 350 µg/mL; in data set [3] (setting [10]), 330 µg/mL. For the same molecule, the “Solubility of UDCA” value in data set [3] (setting [10]) was 420 µg/mL. For the same molecule, the “crystal-form change after DVS (XRPD)” value in data set [4] (25° C., 60% RH-95% RH-0% RH-95% RH) was “no crystal-form change”. The water uptake in data set [4] (25° C./80% RH) is 9.9%.
For `COc1ccc2cc3[n+](cc2c1OC)CCc1cc2c(cc1-3)OCO2.C[C@H](CCC(=O)[O-])[C@H]1CC[C@H]2[C@@H]3[C@@H](O)C[C@@H]4C[C@H](O)CC[C@]4(C)[C@H]3CC[C@]12C` [Form J, berberine ursodeoxycholate], the form conversion entry in data set [5] was “converts to Form A”.

The values are drawn from patent US20210251981A1, “SOLID FORMS OF BERBERINE URSODEOXYCHOLATE AND COMPOSITIONS AND METHODS THEREOF” (SHENZHEN HIGHTIDE BIOPHARMACEUTICAL, LTD., priority 2017, published 2021).
